The numbers were not newly measured in patent US20220395522A1, “Methods of Use of Glucosamine for Increasing Nitrogen Retention” (TSI Bioproducts (Xuzhou) Co., Ltd., priority 2021, published 2022), which cites them from elsewhere.

For this series the following is noted: cited from earlier work.

Molecules are shown by their SMILES.

On to `N[C@H]1C(O)O[C@H](CO)[C@@H](O)[C@@H]1O` (some centres unmarked) [glucosamine], for which the Ingested glucosamine absorbed (human digestive tract) was 10-12%. Further, the “Ingested glucosamine metabolized by members of the intestinal microbiota before it is absorbed” value (in vivo) is on record as “more than 50%”.
